Test results reported in ChEMBL document CHEMBL1201862, “PubChem BioAssay data set” (2004).
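A five-concentration, 48-hour dose response in 96-well plates underlies each endpoint, interpolated linearly between surrounding concentrations. GI50 = concentration required for 50% inhibition of growth.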 Activity calls are given as the source filed them. Cut-off read from the data, not from the text of the source: active = GI50 up to about 1.1 µM and inactive = higher.

Assays:
Assay in all cases: DTP human tumour cell line panel, 48 h
786-0 = tested on: 786-0
COLO 205 = tested on: COLO 205
HCT-116 = tested on: HCT-116
HCT-15 = tested on: HCT-15
KM-20L2 = tested on: KM-20L2
KM12 = tested on: KM12
M14 = tested on: M14
MOLT-4 = tested on: MOLT-4
NCI-H23 = tested on: NCI-H23
NCI-H522 = tested on: NCI-H522
OVCAR-5 = tested on: OVCAR-5
OVCAR-8 = tested on: OVCAR-8
RXF 393 = tested on: RXF 393
SN12C = tested on: SN12C
SNB-19 = tested on: SNB-19
U-251 = tested on: U-251
UACC-257 = tested on: UACC-257
UO-31 = tested on: UO-31

N#CC(C(=O)/C(=N\NC(N)=O)C(C#N)c1ccccc1)c1ccccc1 (stereo not given)
GI50 (786-0): > 100 µM (inactive) | GI50 (COLO 205): > 100 µM (inactive) | GI50 (HCT-116): > 100 µM (inactive) | GI50 (HCT-15): > 100 µM | GI50 (KM-20L2): > 100 µM (inactive) | GI50 (KM12): > 100 µM (inactive) | GI50 (M14): > 100 µM (inactive) | GI50 (MOLT-4): > 100 µM (inactive) | GI50 (NCI-H23): > 100 µM (inactive) | GI50 (NCI-H522): > 100 µM (inactive) | GI50 (OVCAR-5): > 100 µM (inactive) | GI50 (OVCAR-8): > 100 µM (inactive) | GI50 (RXF 393): > 100 µM (inactive) | GI50 (SN12C): > 100 µM (inactive) | GI50 (SNB-19): > 100 µM (inactive) | GI50 (U-251): > 100 µM (inactive) | GI50 (UACC-257): > 100 µM (inactive) | GI50 (UO-31): > 100 µM (inactive)

COc1ccc2c(c1)CCC(OS(=O)(=O)CC13CCC(CC1=O)C3(C)C)C2=O (stereo not given)
GI50 (786-0): 18.8 µM (inactive) | GI50 (COLO 205): 33.7 µM (inactive) | GI50 (HCT-116): 24.3 µM (inactive) | GI50 (HCT-15): 26.7 µM | GI50 (KM-20L2): 19.5 µM (inactive) | GI50 (KM12): 19.5 µM (inactive) | GI50 (M14): 29.5 µM (inactive) | GI50 (MOLT-4): 20.8 µM (inactive) | GI50 (NCI-H23): 17.3 µM (inactive) | GI50 (NCI-H522): 25.2 µM (inactive) | GI50 (OVCAR-5): 37.2 µM (inactive) | GI50 (OVCAR-8): 18.7 µM (inactive) | GI50 (SN12C): 19 µM (inactive) | GI50 (SNB-19): 41.9 µM (inactive) | GI50 (U-251): 21.9 µM (inactive) | GI50 (UACC-257): 37.8 µM (inactive) | GI50 (UO-31): 35.6 µM (inactive)

COc1cc2cc3c4c(cc(OC)c(OC)c4c2cc1OC)CCN3C(=O)OCCBr
GI50 (786-0): 55.8 µM (inactive) | GI50 (COLO 205): 78 µM (inactive) | GI50 (HCT-116): 50.9 µM (inactive) | GI50 (HCT-15): 60 µM | GI50 (KM-20L2): 43.4 µM (inactive) | GI50 (KM12): 60.7 µM (inactive) | GI50 (MOLT-4): 27.8 µM (inactive) | GI50 (NCI-H23): 81.7 µM (inactive) | GI50 (NCI-H522): 37.6 µM (inactive) | GI50 (OVCAR-5): > 100 µM (inactive) | GI50 (OVCAR-8): > 100 µM (inactive) | GI50 (RXF 393): 42.5 µM (inactive) | GI50 (SN12C): 45 µM (inactive) | GI50 (SNB-19): > 100 µM (inactive) | GI50 (U-251): > 100 µM (inactive) | GI50 (UACC-257): > 100 µM (inactive) | GI50 (UO-31): > 100 µM (inactive)

CC1=C2C(=O)C(C)(C)C=C2C(=O)[C@](C)(O)C12CC2 [DEHYDROILLUDIN M]
GI50 (786-0): 0.537 µM (active) | GI50 (COLO 205): > 1 µM (active) | GI50 (HCT-116): 0.265 µM (active) | GI50 (HCT-15): 0.468 µM | GI50 (KM-20L2): 0.527 µM (active) | GI50 (KM12): > 0.935 µM (active) | GI50 (M14): 0.678 µM (active) | GI50 (MOLT-4): > 1 µM (active) | GI50 (NCI-H23): 0.499 µM (active) | GI50 (NCI-H522): 0.245 µM (active) | GI50 (OVCAR-5): > 1 µM (active) | GI50 (OVCAR-8): 0.56 µM (active) | GI50 (RXF 393): 0.593 µM (active) | GI50 (SN12C): > 1 µM (active) | GI50 (SNB-19): > 1 µM (active) | GI50 (U-251): 0.484 µM (active) | GI50 (UACC-257): 0.745 µM (active) | GI50 (UO-31): > 1 µM (active)
